Patent US5876694A, “Azavesamicols” (priority 1997, dated 1999)

Experiments:
[1] = test system: vesicular ACh transport; settings: earlier studies; cited from earlier work
[2] = test system: vesamicol receptor; settings: cited from earlier work; for vesamicol receptor affinity (in words): earlier studies
[3] = test system: vesamicol receptor; settings: rodent brain, cited from earlier work
[4] = test system: vesamicol receptor; experiment: Ex vivo autoradiography of rat brain; assay type: in vivo, male Wistar rats; settings: 3 hrs after iv
Experimental: Ex-vivo Autoradiographic Studies
Two groups of male Wistar rats (n=2) were used in these experiments. Each animal in the first group received an i.v. injection of (+)-[^125 I]12h (385 uCi in 0.1/ml of 50% aq. EtOH). Similarly, animals in the second group received 330 uCi of (-)-[^125 I]12h (in 0.1 ml of 50% aq. EtOH). After 3 hrs, the animals were sacrificed by decapitation. The brains were carefully removed, embedded in Tissue Tek OCT medium and frozen to […] Twenty micron thick coronal brain slices were subsequently obtained by sectioning rostrocaudally with a Reichert HistoSTAT microtome at -15°. The tissue sections were apposed to Kodak NMC film accompanied by ^125 I-labeled external standards (^125 I-Microscales from Amersham). For delineation of cytoarchitecture, adjacent tissue sections were subjected to Nissl staining.

[5] = Tissue distribution of radiotracer in rats; assay type: in vivo, male Wistar rats
Experimental: Tissue Distribution Experiments
Four groups of male Wistar rats (n=4) weighing 200-350 g were used in these experiments. Each animal received, while under ether anesthesia, an intravenous injection of the radiotracer (3-5 uCi) dissolved in 0.1 mL of 50% aqueous ethanol. At 5, 30, 60 and 180 min post-injection, blood was collected from the anesthetized animal by cardiac puncture, and the animal was immediately sacrificed by cardiectomy. The organs and tissues of interest were harvested, transferred to preweighed tubes and counted in a Beckman gamma counter. The tubes were subsequently reweighed to give the weight of the corresponding tissues. Preweighed tubes containing 1 mL samples of a 1:100 dilution of the injected dose were also counted and used as reference for calculating the tissue accumulation of radioactivity. The accumulation of radiotracer was expressed as a percentage of injected dose per gram of tissue.
The animals were injected intravenously with 4.9 uCi of the radiotracer i
0.1 ml of 50% aq. EtOH.
The animals were injected with 3.7 uCi of the radiotracer in 0.1 ml of 50

O[C@@H]1Cc2ccccc2C[C@H]1N1CCC(c2ccccc2)CC1 (relative stereo) [Compound 2a]
inhibition of vesicular ACh transport / activity (in words) [1]: potent inhibitors of vesicular ACh transport
vesamicol receptor affinity (in words) [2]: potent ligands

Nc1cccc2c1C[C@@H](N1CCC(c3ccccc3)CC1)[C@H](O)C2 (relative stereo) [Compound 2b]
inhibition of vesicular ACh transport / activity (in words) [1]: potent inhibitors of vesicular ACh transport
vesamicol receptor affinity (in words) [2]: potent ligands

O[C@@H]1CCCC[C@H]1N1CCC(c2ccccc2)CC1 (relative stereo) [[^3 H]vesamicol]
cortical [^3 H]vesamicol binding after lesioning a known cholinergic pathway (in words) ([3]; lesion): significant decrease
[^3 H]vesamicol distribution versus other cholinergic markers (in words) [3]: correlate well with other markers of cholinergic innervation

OC1CCN(Cc2cccc([125I])c2)CC1N1CCC(c2ccccc2)CC1 (stereo not drawn) [(+)-[^125 I]12h, (+)- and (-)-4-hydroxy-1-(3-[I^125]iodobenzyl)-3-(4-phenyl-piperidinyl)piperidine]
brain regional distribution: cortex, hippocampus and cerebellum [4]: Moderate levels of activity
brain regional distribution: interpeduncular nucleus, olfactory tubercle, nucleus accumbens, amygdala, caudate-putamen, nuclei of fifth and seventh cranial nerves [4]: high levels of radioactivity
Ratio brain/blood ([5]; 5 min, iv): 2.33
Ratio heart/blood ([5]; 5 min, iv): 4.68
Tissue distribution, blood ([5]; 5 min, iv): 0.24 % dose/g of tissue
Tissue distribution, brain ([5]; 5 min, iv): 0.57 % dose/g of tissue
Tissue distribution, gonads ([5]; 5 min, iv): 0.13 % dose/g of tissue
Tissue distribution, heart ([5]; 5 min, iv): 1.14 % dose/g of tissue
Tissue distribution, kidney ([5]; 5 min, iv): 2.25 % dose/g of tissue
Tissue distribution, liver ([5]; 5 min, iv): 1.60 % dose/g of tissue
Tissue distribution, lung ([5]; 5 min, iv): 3.67 % dose/g of tissue
Tissue distribution, muscle ([5]; 5 min, iv): 0.34 % dose/g of tissue
Tissue distribution, spleen ([5]; 5 min, iv): 0.76 % dose/g of tissue
Tissue distribution, thyroid ([5]; 5 min, iv): 1.60 % dose/g of tissue
radioactivity in liver, heart, thyroid and spleen (in words) ([5]; 5 min, iv): Moderate to low levels
radioactivity in lung and kidney (in words) ([5]; 5 min, iv): high levels of radioactivity
radioactivity in brain ([5]; 5 min post-injection, iv): 1.06 % of the injected dose
Ratio brain/blood ([5]; 30 min, iv): 3.18
Ratio heart/blood ([5]; 30 min, iv): 2.33
Tissue distribution, blood ([5]; 30 min, iv): 0.12 % dose/g of tissue
Tissue distribution, brain ([5]; 30 min, iv): 0.36 % dose/g of tissue
Tissue distribution, gonads ([5]; 30 min, iv): 0.15 % dose/g of tissue
Tissue distribution, heart ([5]; 30 min, iv): 0.26 % dose/g of tissue
Tissue distribution, kidney ([5]; 30 min, iv): 1.32 % dose/g of tissue
Tissue distribution, liver ([5]; 30 min, iv): 2.18 % dose/g of tissue
Tissue distribution, lung ([5]; 30 min, iv): 1.21 % dose/g of tissue
Tissue distribution, muscle ([5]; 30 min, iv): 0.16 % dose/g of tissue
Tissue distribution, spleen ([5]; 30 min, iv): 1.07 % dose/g of tissue
Tissue distribution, thyroid ([5]; 30 min, iv): 2.33 % dose/g of tissue
Ratio brain/blood ([5]; 60 min, iv): 3.08
Ratio heart/blood ([5]; 60 min, iv): 1.70
Tissue distribution, blood ([5]; 60 min, iv): 0.09 % dose/g of tissue
Tissue distribution, brain ([5]; 60 min, iv): 0.27 % dose/g of tissue
Tissue distribution, gonads ([5]; 60 min, iv): 0.17 % dose/g of tissue
Tissue distribution, heart ([5]; 60 min, iv): 0.15 % dose/g of tissue
Tissue distribution, kidney ([5]; 60 min, iv): 0.87 % dose/g of tissue
Tissue distribution, liver ([5]; 60 min, iv): 1.91 % dose/g of tissue
Tissue distribution, lung ([5]; 60 min, iv): 0.82 % dose/g of tissue
Tissue distribution, muscle ([5]; 60 min, iv): 0.11 % dose/g of tissue
Tissue distribution, spleen ([5]; 60 min, iv): 0.86 % dose/g of tissue
Tissue distribution, thyroid ([5]; 60 min, iv): 4.59 % dose/g of tissue
radioactivity in brain ([5]; 60 min post-injection, iv): 0.51 % of the injected dose
Ratio brain/blood ([5]; 180 min, iv): 2.35
Ratio heart/blood ([5]; 180 min, iv): 1.60
Tissue distribution, blood ([5]; 180 min, iv): 0.07 % dose/g of tissue
Tissue distribution, brain ([5]; 180 min, iv): 0.15 % dose/g of tissue
Tissue distribution, gonads ([5]; 180 min, iv): 0.16 % dose/g of tissue
Tissue distribution, heart ([5]; 180 min, iv): 0.10 % dose/g of tissue
Tissue distribution, kidney ([5]; 180 min, iv): 0.50 % dose/g of tissue
Tissue distribution, liver ([5]; 180 min, iv): 1.18 % dose/g of tissue
Tissue distribution, lung ([5]; 180 min, iv): 0.39 % dose/g of tissue
Tissue distribution, muscle ([5]; 180 min, iv): 0.08 % dose/g of tissue
Tissue distribution, spleen ([5]; 180 min, iv): 0.44 % dose/g of tissue
Tissue distribution, thyroid ([5]; 180 min, iv): 13.13 % dose/g of tissue
radioactivity in brain ([5]; 3 hrs post-injection, iv): 0.39 % of the injected dose
radioactivity in thyroid (in words) ([5]; beginning to 3 hrs post-injection): moderate at the beginning but increased significantly by 3 hrs post-injection

OCCN1CCC(c2ccccc2)CC1 [Compound 4a]
inhibition of vesicular ACh transport / activity (in words) [1]: substantially diminished activity

CCC(O)CN1CCC(c2ccccc2)CC1 (centres unmarked) [Compound 4b]
inhibition of vesicular ACh transport / activity (in words) [1]: substantially diminished activity
increase in activity ([2]; 4b relative to 4a): 30 fold
